Experiments:
FBXL10 = biological target: T1, FBXL10 (Homo sapiens, UniProt Q8NHM5); assay: FBXL10 in vitro enzyme inhibition assay (AlphaScreen); type: biochemical; settings: Table 5
T1 construct: purchased BPS Bioscience 50120
T1 sequence (Q8NHM5 1-650): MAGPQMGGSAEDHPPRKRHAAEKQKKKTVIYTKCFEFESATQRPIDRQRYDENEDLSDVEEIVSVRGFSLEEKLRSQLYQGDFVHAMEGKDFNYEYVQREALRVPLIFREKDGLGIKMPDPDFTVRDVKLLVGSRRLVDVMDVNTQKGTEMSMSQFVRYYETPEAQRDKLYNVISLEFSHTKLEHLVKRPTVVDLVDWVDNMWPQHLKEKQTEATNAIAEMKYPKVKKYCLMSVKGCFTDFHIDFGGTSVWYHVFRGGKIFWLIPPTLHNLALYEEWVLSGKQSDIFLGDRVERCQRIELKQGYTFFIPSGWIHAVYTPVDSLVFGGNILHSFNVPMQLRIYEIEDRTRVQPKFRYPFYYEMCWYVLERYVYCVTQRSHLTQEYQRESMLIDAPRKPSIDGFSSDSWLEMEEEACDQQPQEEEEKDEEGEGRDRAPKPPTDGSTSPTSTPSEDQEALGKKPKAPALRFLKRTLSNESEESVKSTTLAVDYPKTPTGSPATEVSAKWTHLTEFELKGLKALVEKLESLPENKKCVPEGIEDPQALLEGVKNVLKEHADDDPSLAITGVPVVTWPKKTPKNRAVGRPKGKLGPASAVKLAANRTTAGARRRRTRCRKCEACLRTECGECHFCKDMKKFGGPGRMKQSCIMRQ
Method in brief: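 Baculovirus-expressed FBXL10 (aa 1-650, 0.3 nM) reacted with 30 nM biotinylated H3K36me2 peptide and 0.2 µM α-ketoglutarate in HEPES pH 7.3 with ascorbate, Fe(II), TCEP and BSA for 1 h at room temperature, with 11-point inhibitor series. EDTA stopped the reaction. H3K36me1 product was read by AlphaScreen to give IC50.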

JMJD3 = biological target: T2, JMJD3 (Homo sapiens, UniProt O15054); assay: JMJD3 in vitro enzyme inhibition assay (AlphaScreen); type: biochemical; settings: Table 5; 1 nM JMJD3, H3K27me3-biotin labeled peptide
T2 construct: purchased BPS Bioscience 50115
From the text: This assay determines the ability of a test compound to inhibit Jarid1B, JMJD2C and JMJD3 demethylase activity. Baculovirus expressed Jarid1B (GenBank Accession #NM-006618, AA 2-751) was purchased from BPS Bioscience (Cat #50121) or custom made by MolecularThroughput. Baculovirus expressed JMJD2C (GenBank Accession #BC143571, AA 2-372) was purchased from BPS Bioscience (Cat#50105). Baculovirus expressed JMJD3 (GenBank Accession #NM-001080424, AA1043-end) was purchased from BPS Bioscience (Cat#50115).
The ability of test compounds to inhibit the activity of JMJD3 was determined in 384-well plate format under the following reaction conditions: 1 nM JMJD3, 250 nM H3K27me3-biotin labeled peptide (Anaspec cat # 64367), 1 µM alpha-ketoglutaric acid in assay buffer of 50 mM HEPES, pH7.3, 0.005% Brij35, 0.5 mM TCEP, 0.2 mg/ml BSA, 50 µM sodium L-ascorbate, 5 µM ammonium iron(II) sulfate. Reaction product is determined quantitatively by AlphaScreen detection after the addition of detection reagents anti-H3K27me1 antibody, 5 µg/ml AlphaScreen® Streptavidin-coated Donor beads, and 5 µg/ml AlphaScreen® Protein A Acceptor beads in 50 mM HEPES, pH7.3, 10 mM NaCl, 0.005% Brij35, 10 mM EDTA, 2 mg/ml BSA.
The assay reaction was initiated by the following: 3 µl of the mixture of 750 nM H3K27me3-biotin labeled peptide and 3 µM alpha-ketoglutaric acid with 3 µl of 11-point serial diluted inhibitor in 3% DMSO are added to each well of 384 well Proxiplate (Perkin Elmer), followed by the addition of 3 µl of 3 nM JMJD3 to initiate the reaction. The reaction mixture is incubated at room temperature for 20 minutes, and terminated by the addition of 3 µl of appropriate dilution of anti H3K27me1 antibody in 50 mM HEPES, pH7.3, 10 mM NaCl, 0.005% Brij35, 10 mM EDTA, 2 mg/ml BSA. Plates will then incubated at room temperature for 1 hour, followed by addition of 3 µl of 25 µg/ml AlphaScreen® Streptavidin-coated Donor beads and AlphaScreen® Protein A Acceptor beads in 50 mM HEPES, pH7.3, 10 mM NaCl, 0.005% Brij35, 10 mM EDTA, 2 mg/ml BSA. Plates will then be read by EnVision Multilabel Reader in AlphaScreen mode after minimum 2 hour incubation at room temperature. The AlphaScreen signal for each well is used to determine inhibition constant (IC50).

T2 sequence (O15054 1043-1682 isoform O15054-1): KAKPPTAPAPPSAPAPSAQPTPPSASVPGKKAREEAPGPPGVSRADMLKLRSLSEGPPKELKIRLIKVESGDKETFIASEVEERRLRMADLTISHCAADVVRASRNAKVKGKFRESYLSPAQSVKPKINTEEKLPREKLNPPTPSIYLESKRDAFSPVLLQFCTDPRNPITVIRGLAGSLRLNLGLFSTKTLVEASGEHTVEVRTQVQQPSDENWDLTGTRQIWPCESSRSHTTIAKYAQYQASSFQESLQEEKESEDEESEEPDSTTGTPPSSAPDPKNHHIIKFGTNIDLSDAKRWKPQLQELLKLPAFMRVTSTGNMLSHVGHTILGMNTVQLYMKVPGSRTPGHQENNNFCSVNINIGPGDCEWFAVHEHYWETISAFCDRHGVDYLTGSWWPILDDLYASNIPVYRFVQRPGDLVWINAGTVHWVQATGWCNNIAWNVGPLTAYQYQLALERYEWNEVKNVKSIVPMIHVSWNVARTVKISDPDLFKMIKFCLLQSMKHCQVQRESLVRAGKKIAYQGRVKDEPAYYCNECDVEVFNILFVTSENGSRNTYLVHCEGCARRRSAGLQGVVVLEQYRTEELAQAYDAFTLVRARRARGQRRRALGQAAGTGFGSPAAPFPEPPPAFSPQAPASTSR

IC50 (FBXL10) [µM] | IC50 (JMJD3) [µM] | Compound
≤ 0.1 | 1 to 10 | Fc1cccc(CCn2cnc(-c3cc(-c4nn[nH]c4C(F)(F)F)ccn3)c2)c1 [Example 78, 2-{1-[2-(3-fluorophenyl)ethyl]-1H-imidazol-4-yl}-4-[5-(trifluoromethyl)-1H-1,2,3-triazol-4-yl]pyridine]
0.1 to 1 | > 10 | COc1ccc2c(c1)CCCC2Cn1cnc(-c2cc(-c3nn[nH]c3C(F)(F)F)ccn2)c1 (centres unmarked) [Example 105, 2-{1-[(6-methoxy-1,2,3,4-tetrahydronaphthalen-1-yl)methyl]-1H-imidazol-4-yl}-4-[5-(trifluoromethyl)-1H-1,2,3-triazol-4-yl]pyridine]
≤ 0.1 | 1 to 10 | Fc1ccc(CCn2cnc(-c3cc(-c4nn[nH]c4C(F)(F)F)ccn3)c2)cc1 [Example 77]
≤ 0.1 | > 10 | COc1ccc(CCn2cnc(-c3cc(-c4nn[nH]c4C(F)(F)F)ccn3)c2)cc1 [Example 93, 2-{1-[2-(4-methoxyphenyl)ethyl]-1H-imidazol-4-yl}-4-[5-(trifluoromethyl)-1H-1,2,3-triazol-4-yl]pyridine]
≤ 0.1 | > 10 | FC(F)(F)c1[nH]nnc1-c1ccnc(-c2cn(CCc3ccc(Cl)cc3)cn2)c1 [Example 92, 2-{1-[2-(4-chlorophenyl)ethyl]-1H-imidazol-4-yl}-4-[5-(trifluoromethyl)-1H-1,2,3-triazol-4-yl]pyridine]
≤ 0.1 | > 10 | CCC(c1ccccc1)n1cnc(-c2cc(-c3nn[nH]c3C(F)(F)F)ccn2)c1 (centres unmarked) [Example 74, 2-[1-(1-phenylpropyl)-1H-imidazol-4-yl]-4-[5-(trifluoromethyl)-1H-1,2,3-triazol-4-yl]pyridine]
≤ 0.1 | > 10 | FC(F)(F)c1[nH]nnc1-c1ccnc(-c2cn(CC3CCOc4ccccc43)cn2)c1 (centres unmarked) [Example 98, 2-{1-[(3,4-dihydro-2H-1-benzopyran-4-yl)methyl]-1H-imidazol-4-yl}-4-[5-(trifluoromethyl)-1H-1,2,3-triazol-4-yl]pyridine]
≤ 0.1 | > 10 | Fc1cccc(CCn2cnc(-c3cc(-c4nn[nH]c4C(F)(F)F)ccn3)c2)c1F [Example 79, 2-{1-[2-(2,3-difluorophenyl)ethyl]-1H-imidazol-4-yl}-4-[5-(trifluoromethyl)-1H-1,2,3-triazol-4-yl]pyridine]
≤ 0.1 | > 10 | Fc1ccc(CCn2cnc(-c3cc(-c4nn[nH]c4C(F)(F)F)ccn3)c2)c(F)c1 [Example 86, 2-{1-[2-(2,4-difluorophenyl)ethyl]-1H-imidazol-4-yl}-4-[5-(trifluoromethyl)-1H-1,2,3-triazol-4-yl]pyridine]
0.1 to 1 | > 10 | Fc1ccc2c(c1)C(Cn1cnc(-c3cc(-c4nn[nH]c4C(F)(F)F)ccn3)c1)CCC2 (centres unmarked) [Example 101, 2-{1-[(7-fluoro-1,2,3,4-tetrahydronaphthalen-1-yl)methyl]-1H-imidazol-4-yl}-4-[5-(trifluoromethyl)-1H-1,2,3-triazol-4-yl]pyridine]
0.1 to 1 | > 10 | Fc1cccc(Cl)c1CCn1cnc(-c2cc(-c3nn[nH]c3C(F)(F)F)ccn2)c1 [Example 80, 2-{1-[2-(2-chloro-6-fluorophenyl)ethyl]-1H-imidazol-4-yl}-4-[5-(trifluoromethyl)-1H-1,2,3-triazol-4-yl]pyridine]
0.1 to 1 | > 10 | COc1cccc2c1C(Cn1cnc(-c3cc(-c4nn[nH]c4C(F)(F)F)ccn3)c1)CCC2 (centres unmarked) [Example 107, 2-{1-[(8-methoxy-1,2,3,4-tetrahydronaphthalen-1-yl)methyl]-1H-imidazol-4-yl}-4-[5-(trifluoromethyl)-1H-1,2,3-triazol-4-yl]pyridine]
0.1 to 1 | > 10 | CC(C)C(c1ccccc1)n1cnc(-c2cc(-c3nn[nH]c3C(F)(F)F)ccn2)c1 (centres unmarked) [Example 75, 2-[1-(2-methyl-1-phenylpropyl)-1H-imidazol-4-yl]-4-[5-(trifluoromethyl)-1H-1,2,3-triazol-4-yl]pyridine]
≤ 0.1 | > 10 | Fc1cc(F)c(CCn2cnc(-c3cc(-c4nn[nH]c4C(F)(F)F)ccn3)c2)cc1F [Example 81, 4-[5-(trifluoromethyl)-1H-1,2,3-triazol-4-yl]-2-{1-[2-(2,4,5-trifluorophenyl)ethyl]-1H-imidazol-4-yl}pyridine]
0.1 to 1 | > 10 | Fc1cccc2c1CCCC2Cn1cnc(-c2cc(-c3nn[nH]c3C(F)(F)F)ccn2)c1 (centres unmarked) [Example 99, 2-{1-[(5-fluoro-1,2,3,4-tetrahydronaphthalen-1-yl)methyl]-1H-imidazol-4-yl}-4-[5-(trifluoromethyl)-1H-1,2,3-triazol-4-yl]pyridine]
≤ 0.1 | > 10 | Fc1cccc(F)c1Cn1cnc(-c2cc(-c3nn[nH]c3C(F)(F)F)ccn2)c1 [Example 69, 2-{1-[(2,6-difluorophenyl)methyl]-1H-imidazol-4-yl}-4-[5-(trifluoromethyl)-1H-1,2,3-triazol-4-yl]pyridine]
≤ 0.1 | > 10 | Fc1cccc(F)c1CCn1cnc(-c2cc(-c3nn[nH]c3C(F)(F)F)ccn2)c1 [Example 87, 2-{1-[2-(2,6-difluorophenyl)ethyl]-1H-imidazol-4-yl}-4-[5-(trifluoromethyl)-1H-1,2,3-triazol-4-yl]pyridine]
≤ 0.1 | > 10 | Cc1ccc(CCn2cnc(-c3cc(-c4nn[nH]c4C(F)(F)F)ccn3)c2)cc1 [Example 91, 2-{1-[2-(4-methylphenyl)ethyl]-1H-imidazol-4-yl}-4-[5-(trifluoromethyl)-1H-1,2,3-triazol-4-yl]pyridine]
≤ 0.1 | > 10 | FC(F)(F)c1[nH]nnc1-c1ccnc(-c2cn(Cc3ccccc3Cl)cn2)c1 [Example 64, 2-{1-[(2-chlorophenyl)methyl]-1H-imidazol-4-yl}-4-[5-(trifluoromethyl)-1H-1,2,3-triazol-4-yl]pyridine]
≤ 0.1 | > 10 | FC(F)(F)c1[nH]nnc1-c1ccnc(-c2cn(Cc3ccc(Cl)cc3)cn2)c1 [Example 63, 2-{1-[(4-chlorophenyl)methyl]-1H-imidazol-4-yl}-4-[5-(trifluoromethyl)-1H-1,2,3-triazol-4-yl]pyridine]

Compound | IC50 (FBXL10) [µM] | IC50 (JMJD3) [µM]
CCOc1ccccc1CCn1cnc(-c2cc(-c3nn[nH]c3C(F)(F)F)ccn2)c1 [Example 59] | 0.1 to 1 | > 10
Fc1ccccc1Cn1cnc(-c2cc(-c3nn[nH]c3C(F)(F)F)ccn2)c1 [Example 62, 2-{1-[(2-fluoroprtenyl)methyl]-1H-imidazol-4-yl}-4-[5-(trifluoromethyl)-1H-1,2,3-triazol-4-yl]pyridine] | ≤ 0.1 | > 10
